From patent publication US8697742B2, “BCRP/ABCG2 inhibitor” (Kabushiki Kaisha Yakult Honsha, priority 2005, dated 2014)
In brackets after ≈: the same amount, converted by molar mass. Structures can show the parent of a compound that is named as a salt.

System: A549/SN-38-4 cells
Assay: Effect of overcoming SN-38 resistance of BCRP-expressing A549/SN-38-4 cells
Assay type: cell-based, human
Settings: Homo sapiens, A549, 48 h, concentration for 50% reduction of relative SN-38 resistance value (IC50 A549/SN-38-4 / IC50 A549); 48 hours culture with SN-38; read-out: Effect of overcoming resistance EC50
Procedure: The human lung cancer A549 cells or the A549/SN-38-4 cells were suspended in a Ham's F-12 medium containing 10% FBS, 100 U/mL of penicillin, and 100 μg/mL of streptomycin (10% FBS/Ham's F-12), and the resultant suspension was inoculated into a 96-well microplate (2×10^3 cells/50 μL/well), followed by culturing at 5% CO2 and 37° C. overnight. […] After completion of culturing, the number of viable cells was counted by use of a viable cell counting reagent [TetraColor ONE (trademark), product of Seikagaku Corporation] according to the attached instruction manual. […] The greater the relative resistance value, the higher the level of acquired resistance.

Row | Compound | EC50
1 | COc1ccc(/C(C#N)=C/c2ccc(N3CCN(C)CC3)s2)cc1OC [Compound 8, (Z)-2-(3,4-dimethoxy-phenyl)-3-[5-(4-methyl-piperazin-1-yl)-thiophen-2-yl]-acrylonitrile] | 0.045 µg/mL (≈ 0.122 µM)
2 | COc1ccc(/C(C#N)=C/c2ccc(N3CCN(CCO)CC3)s2)cc1OC [Compound 9, (Z)-2-(3,4-dimethoxy-phenyl)-3-{5-[4-(2-hydroxy-ethyl)-piperazin-1-yl]-thiophen-2-yl}-acrylonitrile] | 0.046 µg/mL (≈ 0.115 µM)

Now from value to molecule:

Row | EC50 | Compound
3 | 0.13 µg/mL (≈ 0.371 µM) | COc1ccc(/C(C#N)=C/c2ccc(Br)s2)cc1OC [Compound 2, (Z)-3-(5-bromo-thiophen-2-yl)-2-(3,4-dimethoxy-phenyl)-acrylonitrile]
4 | 0.039 µg/mL (≈ 0.113 µM) | COc1ccc(/C(C#N)=C/c2ccc(N(C)CCO)s2)cc1OC [Compound 7, (Z)-2-(3,4-dimethoxy-phenyl)-3-{5-[(2-hydroxy-ethyl)-methyl-amino]-thiophen-2-yl}-acrylonitrile]
5 | 0.12 µg/mL (≈ 0.323 µM) | COc1ccc(/C(C#N)=C/c2ccc(N(C)CCN(C)C)s2)cc1OC [Compound 10, (Z)-2-(3,4-dimethoxy-phenyl)-3-{5-[(2-dimethylamino-ethyl)-methyl-amino]-thiophen-2-yl}-acrylonitrile]
6 | 0.034 µg/mL (≈ 0.1 µM) | COc1ccc(/C(C#N)=C/c2ccc(N3CCCCC3)o2)cc1OC [Compound 24, (Z)-2-(3,4-dimethoxy-phenyl)-3-(5-piperidin-1-yl-furan-2-yl)-acrylonitrile]
7 | 0.19 µg/mL (≈ 0.641 µM) | COc1ccc(/C=C(\C#N)c2ccc(OC)c(OC)c2)cn1 [Compound 35, (Z)-2-(3,4-dimethoxy-phenyl)-3-(6-methoxy-pyridin-3-yl)-acrylonitrile]

Same assay, conditions: concentration for 50% reduction of relative SN-38 resistance value (IC50 A549/SN-38-4 / IC50 A549); 48 hours culture with SN-38

Row | Effect of overcoming resistance EC50 | Compound
8 | 0.013 µg/mL | COc1ccc(/C(C#N)=C/c2ccc(-c3cccc(N)c3)o2)cc1OC [Compound 22, (Z)-3-[5-(3-amino-phenyl)-furan-2-yl]-2-(3,4-dimethoxy-phenyl)-acrylonitrile]
9 | 0.51 µg/mL | COc1ccc(/C(C#N)=C/c2ccc(N3CCC(OC(=O)CCC(=O)O)CC3)o2)cc1OC [Compound 51, mono-(1-{5-[(Z)-2-cyano-2-(3,4-dimethoxy-phenyl)-vinyl]-furan-2-yl}-piperidin-4-yl)succinate]

Same assay, conditions: concentration for 50% reduction of relative SN-38 resistance value (IC50 A549/SN-38-4 / IC50 A549); 48 hours culture with SN-38; hydrochloride

Row | Compound | Effect of overcoming resistance EC50
10 | COc1ccc(/C(C#N)=C/c2ccc(N3CCCCC3)s2)cc1OC [Compound 11, (Z)-2-(3,4-dimethoxy-phenyl)-3-(5-piperidin-1-yl-thiophen-2-yl)-acrylonitrile hydrochloride] | 0.049 µg/mL
11 | COc1ccc(/C(C#N)=C/c2ccc(N(C)CCN(C)C)s2)cc1OC [Compound 15, (Z)-2-(3,4-dimethoxy-phenyl)-3-{5-[(2-dimethylamino-ethyl)-methyl-amino]-thiophen-2-yl}-acrylonitrile hydrochloride] | 0.2 µg/mL
12 | COc1ccc(/C(C#N)=C/c2ccc(N3CCN(C)CC3)o2)cc1OC [Compound 29, (Z)-2-(3,4-dimethoxy-phenyl)-3-[5-(4-methyl-piperazin-1-yl)-furan-2-yl]-acrylonitrile hydrochloride] | 0.42 µg/mL
13 | COc1ccc(/C(C#N)=C/c2cccnc2)cc1OC [Compound 36, (Z)-2-(3,4-dimethoxy-phenyl)-3-pyridin-3-yl-acrylonitrile hydrochloride] | 0.12 µg/mL

Further lines, results first:

Row | Effect of overcoming resistance EC50 | Compound
14 | 0.12 µg/mL | COc1ccc(/C=C(\C#N)c2ccc(OC)c(OC)c2)cn1 [Compound 37, (Z)-2-(3,4-dimethoxy-phenyl)-3-(6-methoxy-pyridin-3-yl)-acrylonitrile hydrochloride]
15 | 0.03 µg/mL | COc1ccc(/C=C(\C#N)c2ccccn2)cc1OC [Compound 47, (Z)-3-(3,4-dimethoxy-phenyl)-2-pyridin-2-yl-acrylonitrile hydrochloride]
16 | 0.11 µg/mL | COc1ccc(/C(C#N)=C/c2ccc(N3CCN(CCO)CC3)o2)cc1OC [Compound 50, (Z)-2-(3,4-dimethoxy-phenyl)-3-{5-[4-(2-hydroxy-ethyl)-piperazin-1-yl]-furan-2-yl}-acrylonitrile hydrochloride]
